Source: PMC12316308, “Interactions of substrates and phosphinyl containing inhibitors with bacterial and human zinc proteases” (PLOS One, 2025)
Where “and” joins values, the source holds several entries; their conditions need not be identical. Identical values can stand only once. Like-named read-outs stand apart in the source and are kept apart here.

Legend:
Type in all cases: biochemical
[1] = molecular target: T1, human MT1-MMP/MMP-14 (catalytic domain) (Homo sapiens, UniProt P50281); assay: Enzyme inhibition kinetics, fluorogenic substrate ES001; conditions: MMP-14; for remaining activity at 100 µM: 100 µM inhibitor
T1 construct: human MT1-MMP/MMP-14 (catalytic domain); purchased Calbiochem (San Diego, CA, USA)
Protocol: (§1) Determination of reaction velocities. The substrate ES001 was used for APMA activated MMP-9 (MMP-9(A)), Mag-Trypsin activated MMP-9 (MMP-9(MT)) and MMP-14, while the substrate ES005 was used for ALN, PLN and TLN. The reaction velocities/initial rates (v) were determined at 37°C, at an excitation wavelength of 320 nm and an emission wavelength of 405 nm with a slit width of 10 nm using either a Perkin Elmer LS 50 Luminescence spectrometer and the FL WinLab Software Package (Perkin Elmer) or a Clario Star micro plate reader (CLARIOstar® BMG LABTECH).
(§2) The phosphinic compounds were dissolved in 100% DMSO to a final concentration of 10 mM. In all assays, a fixed substrate concentration of 4.0 µM was used in a total volume of 100 µL 0.1 M Hepes pH 7.5, 10 mM CaCl2, 0.005% Brij-35 and 1.0% DMSO. Fixed enzyme concentrations were as follows; 0.05 nM MMP-9(A), 0.05 nM MMP-9(MT), 1.0 nM MMP-14, 1.4 nM ALN, 0.5 nM PLN and 0.21 nM TLN. Time dependent inhibitory experiments, with and without 100 μM of phosphinic compounds, were performed as follows: Compounds were either pre-incubated with proteases for 15 and 30 minutes at room temperature before initiating the enzymatic reaction by adding the substrate, or not pre-incubated, meaning the reaction was initiated by adding the protease to the mixture of substrate and compound. Control tests without the compound present were performed under the same conditions. Reactions were monitored for 30 minutes at 37°C.
(§3) Determination of IC50 and Ki values. […] A fixed substrate concentration and the same enzyme and buffer conditions as described above were used. Enzymes, with or without inhibitors, were either pre-incubated for 30 minutes at room temperature or not pre-incubated, and initial rate assays were performed as described above. Assays were performed using a Clario Star microplate reader. The IC50 values with corresponding s.d. were calculated with GraphPad Prism 5 using equation 1 or 2, depending on the concentration range of the phosphinic compounds.
(§4) Equation 3 describe the relationship between IC50 and Ki values for substrate competitive inhibitors, considering the fixed substrate concentration and the enzyme’s Km value for the substrate: […]

[2] = molecular target: T2, APMA activated MMP-9 (MMP-9(A)) (Homo sapiens, UniProt P14780); assay: as above; conditions: rMMP-9 (APMA activated); for remaining activity at 100 µM: 100 µM inhibitor
T2 construct: made in house; host or cells: Sf9 and High Five insect cells
Protocol: (§5) The expression of recombinant full length proMMP-9 (rpMMP-9) in Sf9 and High Five insect cells and the purification were performed as previously described. The amount of proMMP-9 was estimated spectrophotometrically at 280 nm using ε280nm = […] [46] for the full length enzyme. Activation of the recombinant proMMP-9 was performed with APMA (auto-activation) and Mag-Trypsin as previously described, while the amount of active MMP-9 was determined by active site titration using galardin, also described previously.
as §1, §2, §3, §4

[3] = molecular target: T3, Mag-Trypsin activated MMP-9 (MMP-9(MT)) (Homo sapiens, UniProt P14780); assay: as above; conditions: rMMP-9 (Mag-trypsin activated); for remaining activity at 100 µM: 100 µM inhibitor
T3 construct: made in house; host or cells: Sf9 and High Five insect cells
Protocol: as §5, §1, §2, §3, §4

aureolysin (ALN) = molecular target: T4, aureolysin (ALN) (Staphylococcus aureus, UniProt P81177); assay: Enzyme inhibition kinetics, fluorogenic substrate ES005; conditions: for remaining activity at 100 µM: 100 µM inhibitor
T4 construct: purchased BioCentrum Ltd (Kraków, Poland)
Protocol: as §1, §2, §3, §4

pseudolysin (PLN, LasB) = molecular target: T5, pseudolysin (PLN, LasB) (Pseudomonas aeruginosa, UniProt P14756); assay: as above; conditions: for remaining activity at 100 µM: 100 µM inhibitor
T5 construct: purchased Calbiochem (San Diego, CA, USA)
Protocol: as §1, §2, §3, §4

thermolysin (TLN) = molecular target: T6, thermolysin (TLN) (Bacillus thermoproteolyticus, UniProt P00800); assay: as above; conditions: for vi/v0 avg (time dependent inhibition, Supplementary Figure S8): Thermolysin, inhibitor 100 µM
T6 construct: purchased Calbiochem (San Diego, CA, USA)
Protocol: as §1, §2, §3, §4

[4] = 0.25 h, 15 min pre incubation, read-out: vi/v0 (single replicate)
[5] = 0.25 h, 15 min pre incubation, read-out: vi/v0 avg
[6] = 0.5 h, 30 min pre incubation, read-out: vi/v0 avg
[7] = no preincubation, read-out: vi/v0 (single replicate)
[8] = no preincubation, read-out: vi/v0 avg
[9] = inhibitor 100 μM, preincubation 0 min
[10] = inhibitor 100 μM, preincubation 15 min
[11] = inhibitor 100 μM, preincubation 30 min
[12] = 0.5 h, 30 min pre incubation, read-out: vi/v0 (single replicate)
[13] = inhibitor 100 μM, average over 0, 15, 30 min preincubation

T3 sequence (P14780 107-707 limits assumed): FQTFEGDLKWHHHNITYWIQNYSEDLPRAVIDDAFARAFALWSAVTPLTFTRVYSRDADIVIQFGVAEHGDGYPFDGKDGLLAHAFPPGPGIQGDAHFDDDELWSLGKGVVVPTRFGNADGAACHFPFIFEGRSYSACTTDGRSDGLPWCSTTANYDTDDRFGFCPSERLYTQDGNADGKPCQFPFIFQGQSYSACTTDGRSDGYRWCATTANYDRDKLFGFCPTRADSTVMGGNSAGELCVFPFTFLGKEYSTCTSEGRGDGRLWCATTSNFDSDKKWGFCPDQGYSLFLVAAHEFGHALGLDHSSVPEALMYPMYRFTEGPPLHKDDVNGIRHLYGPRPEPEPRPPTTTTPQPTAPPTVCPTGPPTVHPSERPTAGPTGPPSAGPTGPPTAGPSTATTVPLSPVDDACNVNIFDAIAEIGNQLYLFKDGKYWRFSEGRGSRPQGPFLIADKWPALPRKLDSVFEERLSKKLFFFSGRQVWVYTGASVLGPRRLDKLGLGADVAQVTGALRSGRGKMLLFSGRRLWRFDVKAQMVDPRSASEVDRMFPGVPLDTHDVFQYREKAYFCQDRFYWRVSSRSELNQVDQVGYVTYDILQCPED
T2 sequence (P14780 107-707 limits assumed): as above
T6 sequence (P00800 233-548): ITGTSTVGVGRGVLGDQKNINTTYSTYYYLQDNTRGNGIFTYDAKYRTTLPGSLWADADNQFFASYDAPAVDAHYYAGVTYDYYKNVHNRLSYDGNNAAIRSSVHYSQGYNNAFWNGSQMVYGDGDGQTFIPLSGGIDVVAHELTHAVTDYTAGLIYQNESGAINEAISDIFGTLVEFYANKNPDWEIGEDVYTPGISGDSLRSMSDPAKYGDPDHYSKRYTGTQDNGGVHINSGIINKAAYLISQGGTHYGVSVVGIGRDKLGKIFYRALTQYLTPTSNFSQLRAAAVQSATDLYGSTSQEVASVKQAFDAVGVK
T4 sequence (P81177 209-509): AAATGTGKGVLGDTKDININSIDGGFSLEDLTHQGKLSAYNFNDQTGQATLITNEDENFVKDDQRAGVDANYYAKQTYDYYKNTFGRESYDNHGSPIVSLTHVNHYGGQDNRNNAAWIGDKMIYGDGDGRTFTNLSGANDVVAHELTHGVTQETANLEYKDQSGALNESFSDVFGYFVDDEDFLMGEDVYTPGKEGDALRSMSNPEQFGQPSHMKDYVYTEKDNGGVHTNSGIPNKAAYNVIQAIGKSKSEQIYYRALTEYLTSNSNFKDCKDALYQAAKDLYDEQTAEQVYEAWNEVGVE
T5 sequence (P14756 198-498): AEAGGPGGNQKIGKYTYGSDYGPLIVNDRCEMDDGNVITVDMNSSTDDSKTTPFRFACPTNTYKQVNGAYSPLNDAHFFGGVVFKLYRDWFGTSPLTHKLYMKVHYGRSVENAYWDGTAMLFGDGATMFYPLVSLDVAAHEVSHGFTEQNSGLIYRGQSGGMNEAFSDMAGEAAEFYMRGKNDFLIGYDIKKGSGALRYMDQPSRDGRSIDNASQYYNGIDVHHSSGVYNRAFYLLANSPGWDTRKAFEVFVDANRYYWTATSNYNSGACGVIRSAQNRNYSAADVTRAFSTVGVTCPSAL

Which remaining activity at 100 µM [1, 4] does the source give for `CCOC(=O)C(CO)CP(=O)(O)C(Cc1ccccc1)NC(=O)OCc1ccccc1` (stereo not drawn) [H5] here?
The remaining activity at 100 µM was 87.2%.

What about the remaining activity at 100 µM [1, 5] of the same compound?
The remaining activity at 100 µM was 88.7%.

What about the remaining activity at 100 µM [1, 6] of the same compound?
The remaining activity at 100 µM was 96.8%.

And the remaining activity at 100 µM [1, 7]?
Its remaining activity at 100 µM is 96.3%.

And the remaining activity at 100 µM [1, 8]?
The remaining activity at 100 µM was 98.5%.

What about the “vi/v0 Av (bar diagram figure 7)” value ([1]; inhibitor 100 μM, average over preincubation times) of the same compound?
Its value is 0.9417.

What about the “vi/v0 (relative enzyme activity with inhibitor), single determinations” value [1, 9] of the same compound?
The value was 0.9629 and 1.0076.

And the “vi/v0 (relative enzyme activity with inhibitor), single determinations” value [1, 10]?
The value was 0.8725 and 0.8868 and 0.9012.

And the “vi/v0 (relative enzyme activity with inhibitor), single determinations” value [1, 11]?
The value was 1.138 and 0.953 and 0.8121.

What about the remaining activity at 100 µM [2, 5] of the same compound?
Its remaining activity at 100 µM is 102%.

And the remaining activity at 100 µM [2, 12]?
Its remaining activity at 100 µM is 77.7%.

And the remaining activity at 100 µM [2, 6]?
The remaining activity at 100 µM was 83.7%.

What about the remaining activity at 100 µM [2, 8] of the same compound?
The remaining activity at 100 µM was 100%.

And the “vi/v0 Av (bar diagram figure 7)” value [2, 13]?
Its value is 0.9644.

And the “vi/v0 (relative enzyme activity with inhibitor), single determinations” value [2, 9]?
Its value is 1.202 and 0.9509 and 1.0525 and 0.8.

And the “vi/v0 (relative enzyme activity with inhibitor), single determinations” value [2, 10]?
Its value is 1.106 and 1.228 and 0.879 and 0.8791.

And the “vi/v0 (relative enzyme activity with inhibitor), single determinations” value [2, 11]?
The value was 0.7771 and 0.9097 and 0.824.

What about the remaining activity at 100 µM [3, 4] of the same compound?
Its remaining activity at 100 µM is 87.3%.

What about the remaining activity at 100 µM [3, 5] of the same compound?
The remaining activity at 100 µM was 84.8%.

And the remaining activity at 100 µM [3, 12]?
The remaining activity at 100 µM was 86.9%.

And the remaining activity at 100 µM [3, 6]?
Its remaining activity at 100 µM is 88.1%.

And the remaining activity at 100 µM [3, 7]?
Its remaining activity at 100 µM is 88.4%.

And the remaining activity at 100 µM [3, 8]?
Its remaining activity at 100 µM is 88.5%.

And the “vi/v0 Av (bar diagram figure 7)” value [3, 13]?
The value was 0.8694.

What about the “vi/v0 (relative enzyme activity with inhibitor), single determinations” value [3, 9] of the same compound?
Its value is 0.8838 and 0.8693 and 0.8452 and 0.9405.

And the “vi/v0 (relative enzyme activity with inhibitor), single determinations” value [3, 10]?
Its value is 0.8726 and 0.9039 and 0.8256 and 0.7918.

And the “vi/v0 (relative enzyme activity with inhibitor), single determinations” value [3, 11]?
Its value is 0.8689 and 0.8925.

What about the remaining activity at 100 µM (aureolysin (ALN); 0.25 h, read-out: vi/v0 (single replicate), Aureolysin, 15 min pre incubation) of the same compound?
The remaining activity at 100 µM was 84.1%.

And the remaining activity at 100 µM (aureolysin (ALN); 0.25 h, read-out: vi/v0 avg, Aureolysin, 15 min pre incubation)?
Its remaining activity at 100 µM is 89.9%.

And the remaining activity at 100 µM (aureolysin (ALN); 0.5 h, read-out: vi/v0 (single replicate), Aureolysin, 30 min pre incubation)?
The remaining activity at 100 µM was 89.6%.

What about the remaining activity at 100 µM (aureolysin (ALN); 0.5 h, read-out: vi/v0 avg, Aureolysin, 30 min pre incubation) of the same compound?
The remaining activity at 100 µM was 87.3%.

And the “vi/v0 Av (bar diagram figure 7)” value (aureolysin (ALN); Aureolysin (ALN), inhibitor 100 μM, average over 0, 15, 30 min preincubation)?
Its value is 0.8959.

And the “vi/v0 (relative enzyme activity with inhibitor), single determinations” value (aureolysin (ALN); Aureolysin (ALN), inhibitor 100 μM, preincubation 0 min)?
Its value is 0.8465 and 0.9473 and 0.9691 and 0.8995.

And the “vi/v0 (relative enzyme activity with inhibitor), single determinations” value (aureolysin (ALN); Aureolysin (ALN), inhibitor 100 μM, preincubation 15 min)?
The value was 0.8412 and 0.9365 and 0.9386 and 0.8803.

What about the “vi/v0 (relative enzyme activity with inhibitor), single determinations” value (aureolysin (ALN); Aureolysin (ALN), inhibitor 100 μM, preincubation 30 min) of the same compound?
Its value is 0.8961 and 0.824 and 0.8612 and 0.9107.

What about the remaining activity at 100 µM (aureolysin (ALN); read-out: vi/v0 (single replicate), Aureolysin, no preincubation) of the same compound?
Its remaining activity at 100 µM is 84.6%.

And the remaining activity at 100 µM (aureolysin (ALN); read-out: vi/v0 avg, Aureolysin, no preincubation)?
Its remaining activity at 100 µM is 91.6%.

What about the remaining activity at 100 µM (pseudolysin (PLN, LasB); 0.25 h, read-out: vi/v0 (single replicate), Pseudolysin, 15 min pre incubation) of the same compound?
The remaining activity at 100 µM was 83.9%.

And the remaining activity at 100 µM (pseudolysin (PLN, LasB); 0.25 h, read-out: vi/v0 avg, Pseudolysin, 15 min pre incubation)?
Its remaining activity at 100 µM is 86.2%.

What about the remaining activity at 100 µM (pseudolysin (PLN, LasB); 0.5 h, read-out: vi/v0 (single replicate), Pseudolysin, 30 min pre incubation) of the same compound?
Its remaining activity at 100 µM is 86.3%.

And the remaining activity at 100 µM (pseudolysin (PLN, LasB); 0.5 h, read-out: vi/v0 avg, Pseudolysin, 30 min pre incubation)?
The remaining activity at 100 µM was 75.4%.

And the “vi/v0 Av (bar diagram figure 7)” value (pseudolysin (PLN, LasB); Pseudolysin (PLN), inhibitor 100 μM, average over 0, 15, 30 min preincubation)?
Its value is 0.86.

And the “vi/v0 (relative enzyme activity with inhibitor), single determinations” value (pseudolysin (PLN, LasB); Pseudolysin (PLN), inhibitor 100 μM, preincubation 0 min)?
Its value is 1.071 and 0.9333 and 0.8899.

What about the “vi/v0 (relative enzyme activity with inhibitor), single determinations” value (pseudolysin (PLN, LasB); Pseudolysin (PLN), inhibitor 100 μM, preincubation 15 min) of the same compound?
Its value is 0.8394 and 0.8848.

And the “vi/v0 (relative enzyme activity with inhibitor), single determinations” value (pseudolysin (PLN, LasB); Pseudolysin (PLN), inhibitor 100 μM, preincubation 30 min)?
Its value is 0.863 and 0.6659 and 0.7323.

And the remaining activity at 100 µM (pseudolysin (PLN, LasB); read-out: vi/v0 (single replicate), Pseudolysin, no preincubation)?
Its remaining activity at 100 µM is 107%.

What about the remaining activity at 100 µM (pseudolysin (PLN, LasB); read-out: vi/v0 avg, Pseudolysin, no preincubation) of the same compound?
Its remaining activity at 100 µM is 96.5%.

What about the “vi/v0 Av (bar diagram figure 7)” value (thermolysin (TLN); Thermolysin (TLN), inhibitor 100 μM, average over 0, 15, 30 min preincubation) of the same compound?
Its value is 1.046.

What about the “vi/v0 (relative enzyme activity with inhibitor), single determinations” value (thermolysin (TLN); Thermolysin (TLN), inhibitor 100 μM, preincubation 0 min) of the same compound?
Its value is 1.137 and 1.068 and 1.02 and 1.001.

And the “vi/v0 (relative enzyme activity with inhibitor), single determinations” value (thermolysin (TLN); Thermolysin (TLN), inhibitor 100 μM, preincubation 15 min)?
Its value is 1.051 and 0.8192 and 1.086 and 1.159.

And the “vi/v0 (relative enzyme activity with inhibitor), single determinations” value (thermolysin (TLN); Thermolysin (TLN), inhibitor 100 μM, preincubation 30 min)?
Its value is 1.144 and 1.0013 and 1.003 and 1.066.

And the “vi/v0 avg (time dependent inhibition, Supplementary Figure S8)” value (thermolysin (TLN); 15 min pre incubation)?
The value was 1.029.

What about the “vi/v0 avg (time dependent inhibition, Supplementary Figure S8)” value (thermolysin (TLN); 30 min pre incubation) of the same compound?
Its value is 1.054.

What about the “vi/v0 avg (time dependent inhibition, Supplementary Figure S8)” value (thermolysin (TLN); No preincubation) of the same compound?
The value was 1.056.
